Measured values published in patent US20180370912A1, “COMPOUNDS AND METHODS FOR TREATING DISEASES MEDIATED BY PROTEIN DISULFIDE ISOMERASE” (Beth Israel Deaconess Medical Center, Inc., priority 2017, published 2018).

What was measured:
[1] = target: T1, PDI domain fragments (a, a′, ab, abb′, b′xa′) (Homo sapiens, UniProt P07237); test: Insulin reductase assay of isolated PDI domains; type: biochemical; conditions: FIG. 4a
T1 construct: a (residues 1-117), a′ (residues 342-462), ab (residues 1-218), abb′ (residues 1-331), or b′xa′ (residues 219-462); His; made in house; host or cells: Escherichia coli Origami B (DE3), pET-15b
T1 sequence (P07237 18-348): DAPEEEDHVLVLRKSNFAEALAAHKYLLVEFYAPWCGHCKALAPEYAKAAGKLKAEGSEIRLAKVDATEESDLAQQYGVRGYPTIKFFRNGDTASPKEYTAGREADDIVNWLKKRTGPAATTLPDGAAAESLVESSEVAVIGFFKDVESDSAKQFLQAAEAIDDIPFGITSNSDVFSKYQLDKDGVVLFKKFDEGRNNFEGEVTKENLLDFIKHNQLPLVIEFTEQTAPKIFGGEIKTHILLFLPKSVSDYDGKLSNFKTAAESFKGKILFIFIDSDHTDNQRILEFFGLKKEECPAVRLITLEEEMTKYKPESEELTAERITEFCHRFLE
Method: (§1) The thiol isomerase-catalyzed reduction of insulin was assayed by measuring the increase in turbidity as detected at an optical density (OD) of 650 nm using a Spectramax M3 (Molecular Devices, Sunnyvale, Calif.). The validation assay consisted of 175 nM of PDI in a solution containing 100 mM potassium phosphate (pH 7.4) containing 0.2 mM bovine insulin, 2 mM EDTA, and 0.3 mM DTT (all purchased from Sigma Aldrich, St. Louis, Mo.), inhibitors were used at the concentrations indicated. The reaction was performed at 25° C. for one hour and thirty minutes. For assays of thiol isomerase selectivity, 11 nM PDI, ERp57 or Thioredoxin, or 33 nM ERpS were assayed in similar buffer conditions as described above and inhibitors were used at the indicated concentration. The reaction was performed at 37° C. for forty-five minutes. For assays of isolated domains studies, 400 nM protein was used, except for a, a′ and ab, in which 800 nM protein was used. The assay was performed in similar buffer conditions as described above. Bepristat 2a and N-(2,4-Dimethoxyphenyl)-N-(1-oxo-2-propyn-1-yl)-2-(2-thienyl)glycyl-glycine ethyl ester (PACMA-31) were used at a final concentration of 15 μM in these studies.

[2] = target: T2, PDI domain fragments (a, a′, ab, abb′, b′xa′) (Homo sapiens, UniProt P07237); test: Insulin reductase assay of isolated PDI domains; type: biochemical; conditions: FIG. 4a; remark: listed apart in the source
T2 construct: a (residues 1-117), a′ (residues 342-462), ab (residues 1-218), abb′ (residues 1-331), or b′xa′ (residues 219-462); His; made in house; host or cells: Escherichia coli Origami B (DE3), pET-15b
Method: as §1

[3] = target: T3, PDI domain fragments (a, a′, ab, abb′, b′xa′) (Homo sapiens, UniProt P07237); test: Insulin reductase assay of isolated PDI domains; type: biochemical; conditions: FIG. 4a; remark: listed apart in the source
T3 construct: a (residues 1-117), a′ (residues 342-462), ab (residues 1-218), abb′ (residues 1-331), or b′xa′ (residues 219-462); His; made in house; host or cells: Escherichia coli Origami B (DE3), pET-15b
T3 sequence (P07237 18-235): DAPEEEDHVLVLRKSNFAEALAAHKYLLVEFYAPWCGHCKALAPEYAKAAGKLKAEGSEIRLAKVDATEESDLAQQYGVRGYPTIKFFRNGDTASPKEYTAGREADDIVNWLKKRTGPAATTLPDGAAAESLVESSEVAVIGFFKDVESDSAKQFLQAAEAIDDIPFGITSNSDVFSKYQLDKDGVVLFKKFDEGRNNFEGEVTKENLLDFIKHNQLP
Method: as §1

PDI [4] = target: T4, PDI (Homo sapiens, UniProt P07237); test: Di-eosin-GSSG disulfide reductase assay; type: biochemical
T4 construct: FLAG; made in house; host or cells: Escherichia coli Origami B (DE3), pET-15b
T4 sequence (P07237 18-508): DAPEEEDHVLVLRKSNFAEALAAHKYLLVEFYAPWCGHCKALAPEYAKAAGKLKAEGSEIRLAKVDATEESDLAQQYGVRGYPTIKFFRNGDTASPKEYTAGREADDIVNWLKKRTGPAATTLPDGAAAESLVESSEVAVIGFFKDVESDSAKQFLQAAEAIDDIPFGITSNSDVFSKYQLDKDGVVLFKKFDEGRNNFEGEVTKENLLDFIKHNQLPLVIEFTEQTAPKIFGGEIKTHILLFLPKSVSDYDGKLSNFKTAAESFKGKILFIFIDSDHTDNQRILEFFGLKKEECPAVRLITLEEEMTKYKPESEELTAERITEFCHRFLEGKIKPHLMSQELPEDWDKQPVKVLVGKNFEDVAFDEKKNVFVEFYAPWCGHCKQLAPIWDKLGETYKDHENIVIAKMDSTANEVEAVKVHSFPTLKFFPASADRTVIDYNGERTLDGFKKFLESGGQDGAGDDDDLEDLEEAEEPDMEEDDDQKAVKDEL
Method: The probe di-eosin glutathione disulfide, di-eosin-GSSG, was prepared as previously described in Raturi, A., Vacratsis, P. O., Seslija, D., Lee, L. & Mutus, B., Biochem J 391, 351-357 (2005). Reductase activity of purified thiol isomerases and PDI domains was monitored in a 96-well fluorescence plate format. PDI, AGHA-PDI, ERpS, ERp57, ERp72 and PDI domains were assayed at 50 nM in the presence or absence of the indicated small molecules, peptides or cathepsin G. The assay included 100 mM potassium phosphate (pH 7.4) containing 2 mM EDTA, 5 μM DTT and 150 nM of the di-eosin GSSG probe. The increase in fluorescence was determined for 20 minutes by excitation at 520 nm and emission at 550 nm in a Synergy Biotek 4. The reduction of 150 nM di-eosin-GSSG by 5 μM DTT in the presence or absence of mentioned small molecules, peptides or proteins served as a negative control.
Michaelis Menten analysis was assayed using PDI at 20 nM and small molecules, peptides or cathepsin G at concentrations causing maximal augmentation under similar buffer conditions as described above. 8-point response curves were generated using a range of different di-eosin-GSSG concentrations (50-5000 nM). Enzyme kinetics analysis was performed using Graphpad Prism 5.0.

PDI [5] = target: T4, PDI; test: ANS fluorescence; type: binding; conditions: 100 μM inhibitor, 50 μM ANS, FIG. 4c
Method: The binding of 1-Anilinonaphthalene-8-Sulfonic Acid (ANS) to full length PDI and the different domains of PDI was assessed by incubating 5 μM of protein in the presence or absence of 100 μM of the indicated inhibitors in 175 μL of TBS at 37° C. for 1 hour. Subsequently, 50 μM of ANS was added and the mixture was incubated in the dark at 25° C. for 20 minutes. Fluorescence spectrum (Ex: 370 nm, Em: 400-700 nm) was measured in a 384-well plate. The experiment was performed in triplicate.

PDI [6] = target: T4, PDI; test: Insulin reductase (turbidimetric) assay; type: biochemical; conditions: for selectivity for PDI among thiol isomerases: versus ERp5, ERp57, thioredoxin, concentrations 10-fold higher than IC50
Method: as §1
Reversibility studies were performed by incubating 20 μM PDI with 6 μM of bepristat 2a or 300 μM of PACMA-31. After 30 minute equilibration; the PDI-inhibitor mixture was diluted 100 fold into the above mentioned assay buffer. The reductase activity of these mixtures were compared to PDI in the presence or absence of 6 μM bepristat 2a or 0.06 μM bepristat 2a or 300 μM PACMA-31 or 3 μM PACMA-31.

Washed human platelets = test: Platelet aggregation, light transmission aggregometry; type: cell-based; conditions: for inhibition of SFLLRN-induced platelet aggregation: 30 μM, 3 μM SFLLRN, FIG. 2d; for reversibility of inhibition of platelet aggregation after washing: platelets incubated with antagonist, washed, then stimulated with SFLLRN
Method: Platelet aggregation was performed as previously described in Jasuja, R. et al., J Clin Invest 122, 2104-2113 (2012). Briefly, platelet rich plasma (PRP) was obtained from healthy volunteers. Platelets were isolated by centrifugation at 2,000 g and resuspended in Hepes-Tyrode buffer (134 mM […], 2.9 mM KCl, 12 mM sodium bicarbonate, 20 mM HEPES, 1 mM magnesium chloride, 5 mM glucose [pH 7.3]). Washed human platelets (2.5×10^8 platelets/mL) were incubated with the indicated concentrations of bepristats and PACMA-31 at 37° C. for 20 minutes and then exposed to 3 μM PAR-1 activating peptide SFLLRN. Aggregation was measured using a Chrono-Log 680 Aggregation System.

SMILES | insulin reductase activity of abb′ domains [1] | insulin reductase activity of b′xa′ domains [2] | insulin reductase activity of isolated a domain [2] | insulin reductase activity of isolated a′ domain [2] | insulin reductase activity of ab domain [3] | cleavage of di-eosin-GSSG probe by PDI (reductase activity at catalytic cysteines) (PDI [4]) | increase in ANS fluorescence upon incubation with PDI (PDI [5]) | selectivity for PDI among thiol isomerases (PDI [6]) | inhibition of SFLLRN-induced platelet aggregation (Washed human platelets) | reversibility of inhibition of platelet aggregation after washing (Washed human platelets) | apparent kcat (PDI [4]; Michaelis-Menten analysis, incubation with compound, 1135 min^−1 without bepristats) | fluorescence of di-eosin-GSSG in the absence of PDI (PDI [4]; no PDI) | reversibility of PDI inhibition in the insulin reductase assay (PDI [6]; 100-fold dilution of 6 μM bepristat 2a or 300 μM PACMA-31, FIG. 9) | inhibitory activity in the insulin turbidimetric assay compared with quercetin-3-rutinoside, PACMA-31 and bacitracin (PDI [6]; FIG. 1e) | IC50 (PDI [6]; insulin reductase assay, FIG. 1b)
C#CC(=O)N(c1ccc(OC)cc1OC)C(C(=O)NCC(=O)OCC)c1cccs1 (stereo not shown) [PACMA-31, N-(2,4-Dimethoxyphenyl)-N-(1-oxo-2-propyn-1-yl)-2-(2-thienyl)glycyl-glycine ethyl ester, reference compound] | inhibited reductase activity of all PDI fragments | inhibited reductase activity of all PDI fragments | inhibited reductase activity of all PDI fragments | inhibited reductase activity of all PDI fragments | inhibited reductase activity of all PDI fragments | blocked PDI-mediated cleavage of di-eosin-GSSG | failed to block ANS fluorescence | not entirely selective for PDI among thiol isomerases | inhibited platelet aggregation | irreversibly inhibited |  |  |  |  | 
CCOC(=O)c1c(CNCCN(CC)CC)n(-c2ccccc2)c2cc(Br)c(O)cc12 [bepristat 2a] | blocked activity | blocked activity | did not have activity | did not have activity | did not have activity | enhanced cleavage of the di-eosin-GSSG probe by PDI | interfered with the increase in ANS fluorescence | selective among vascular thiol isomerases | inhibited platelet aggregation | restored following washing | 33.25 s⁻¹ | did not affect | readily reversed by dilution to a subinhibitory concentration | more potent inhibitory activity | ~1200 nM
